Test results from ChEMBL document CHEMBL5385857, “Optimization and SAR research at the benzoxazole and tetrazole rings of JNJ4796 as new anti-influenza A virus agents, part 2” (Eur J Med Chem, 2023).

How the values were obtained:
[1] = system: Influenza A virus; test: Antiviral activity against oseltamivir-resistant influenza A virus H1N1 clinical isolate IAV/Tianjin Jinnan/15/2009 infected in MDCK cells; format: functional, organism-based; settings: H1N1(IAV/Tianjin Jinnan/15/2009)
[2] = Selectivity index, ratio of CC50 for MDCK cells to IC50 for oseltamivir-resistant influenza A virus H1N1 clinical isolate IAV/Tianjin Jinnan/15/2009 infected in MDCK cells; format: toxicity, cell-based; settings: dog, read-out: Ratio CC50/IC50

| SMILES | IC50 [1] | selectivity ratio [2] |
| --- | --- | --- |
| CC(=O)Nc1ccc2oc(-c3ccnc(C(=O)N4CCN([C@H](c5ccc(F)cc5)c5nnn(C6CCCC6)n5)CC4)c3)nc2c1 | 0.44 µM | 198 |
| CC(=O)Nc1ccc2oc(-c3ccnc(C(=O)N4CCN([C@@H](c5ccccc5)c5nnn(C(C)C)n5)CC4)c3)nc2c1 | 1.51 µM | > 66 |
| CCCCn1nnc([C@@H](c2ccc(F)cc2)N2CCN(C(=O)c3cc(-c4nc5cc(NC(C)=O)ccc5o4)ccn3)CC2)n1 | 0.22 µM | > 454 |
| CCCCn1nnc([C@H](c2ccc(F)cc2)N2CCN(C(=O)c3cc(-c4nc5cc(NC(C)=O)ccc5o4)ccn3)CC2)n1 | 4.85 µM | > 20 |
| CC(=O)Nc1ccc2oc(-c3ccnc(C(=O)N4CCN([C@H](c5ccc(F)cc5)c5nnn(C(C)C)n5)CC4)c3)nc2c1 | 0.07 µM | > 1430 |
| CC(=O)Nc1ccc2oc(-c3ccnc(C(=O)N4CCN([C@@H](c5ccc(F)cc5)c5nnn(CCC(C)C)n5)CC4)c3)nc2c1 | 11.7 µM | > 8 |
| C=Cn1nnc([C@@H](c2ccc(F)cc2)N2CCN(C(=O)c3cc(-c4nc5cc(NC(C)=O)ccc5o4)ccn3)CC2)n1 | 0.09 µM | > 196 |
| CC(=O)Nc1ccc2oc(-c3ccnc(C(=O)N4CCN([C@H](c5ccccc5)c5nnn(C(C)C)n5)CC4)c3)nc2c1 | 0.07 µM | > 1430 |
| CCC(CC)n1nnc([C@H](c2ccc(F)cc2)N2CCN(C(=O)c3cc(-c4nc5cc(NC(C)=O)ccc5o4)ccn3)CC2)n1 | 0.96 µM | > 104 |
| CC(=O)Nc1ccc2oc(-c3ccnc(C(=O)N4CCN([C@@H](c5ccc(F)cc5)c5nnn(C(C)C)n5)CC4)c3)nc2c1 | 2.29 µM | > 43 |
| CC(=O)Nc1ccc2oc(-c3ccnc(C(=O)N4CCN([C@@H](c5ccc(F)cc5)c5nnn(C6CCCC6)n5)CC4)c3)nc2c1 | 2.46 µM | 39 |
| CCC(CC)n1nnc([C@@H](c2ccc(F)cc2)N2CCN(C(=O)c3cc(-c4nc5cc(NC(C)=O)ccc5o4)ccn3)CC2)n1 | 0.22 µM | > 454 |
| C=Cn1nnc([C@H](c2ccc(F)cc2)N2CCN(C(=O)c3cc(-c4nc5cc(NC(C)=O)ccc5o4)ccn3)CC2)n1 | 6.86 µM | > 14.5 |
| CC(=O)Nc1ccc2oc(-c3ccnc(C(=O)N4CCN([C@H](c5ccc(F)cc5)c5nnn(CCC(C)C)n5)CC4)c3)nc2c1 | 0.73 µM | > 136 |
